Like-named read-outs stand apart in the source and are kept apart here.
Key:
[1] = Pharmacokinetic study of oral and intravenous test compounds in SD rats; assay type: in vivo; details: rat, plasma, SD male rats; for AUC(0-t): read-out: Area under plasma concentration-time curve AUC0-last
Experimental: Pharmacokinetic Study of Oral and Intravenous Test Compounds in SD Rats The test compound was mixed with a solution containing 10% of methyl pyrrolidone, 10% of polyethylene glycol stearate and 80% of water. The mixture was vortexed and sonicated to prepare a 1.5 mg/mL clarified solution, which was then filtered through a microporous membrane for later use. SD male rats aged 7 to 10 weeks were selected and administered intravenously with a dose of the candidate compound at 3 mg/kg. The test compound was mixed with 0.5% aqueous methylcellulose solution. The mixture was vortexed and sonicated to prepare a 2 mg/mL suspension for later use. SD male rats aged 7 to 10 weeks were selected and orally administered with a dose of the candidate compound at 10 mg/kg. Whole blood was collected at certain time points, and plasma was separated. The drug concentration was measured by LC-MS/MS, and pharmacokinetic parameters were calculated using Phoenix WinNonlin software (Pharsight, USA).

human IRAK4 = human IRAK4 (Homo sapiens (Human), UniProt Q9NWZ3); experiment: 33P-labeled kinase activity assay (Reaction Biology Corp), in vitro enzymatic activity; assay type: biochemical; details: 20 μM ATP, 3 nM kinase, MBP substrate
Experimental: The inhibitory activity of the test compounds against human IRAK4 was evaluated by measuring IC50 values in a ^33P-labeled kinase activity assay (Reaction Biology Corp). Buffer conditions: 20 mM Hepes (pH 7.5), 10 mM MgCl2, 1 mM EGTA, 0.02% Brij35, 0.02 mg/mL BSA, 0.1 mM Na3VO4, 2 mM DTT, 1% DMSO. Procedures: The test compound was dissolved in DMSO at room temperature to prepare a 10 mM solution for later use. The substrate was dissolved in fresh buffer, to which the kinase was added and mixed well. The DMSO solution containing the test compound was added to the above mixed reaction system by an acoustic technique (Echo 550). The concentrations of the compounds in reaction system were 10 μM, 3.33 μM, 1.11 μM, 0.370 μM, 0.123 μM, 41.2 nM, 13.7 nM, 4.57 nM, 1.52 nM, and 0.508 nM. After 15 minutes of incubation, the reaction was started by adding ^33P-ATP (activity: 0.01 μCi/μL; the corresponding concentration is listed in Table 1). Supplier's catalog number, lot number and concentration information in the reaction system for IRAK4 and its substrate are listed in Table 1. After 120 minutes of reaction at room temperature, the resulting solution was loaded on P81 ion exchange chromatography paper sheet (Whatman #3698-915). After repeated washing with 0.75% phosphoric acid solution, the radioactivity of the phosphorylated substrate residue on the paper sheet was measured. The kinase activity data are shown as a comparison of the kinase activity of the test compound and the kinase activity of the blank (DMSO only) and a curve was fitted using Prism4 software (GraphPad) to give IC50 values, with the experimental results shown in Table 2. [table]

THP-1 cells = experiment: TNF-α ELISA assay in LPS-stimulated THP-1 cells; assay type: cell-based, human; details: TNF-α in supernatant, 150 ng/mL LPS
Experimental: TNF-α ELISA Assay in THP-1 Cells THP-1 human acute unicellular leukemia cells were purchased from ATCC (Cat #TIB-202) and incubated in a 37° C., 5% CO2 incubator. The medium was RPMI1640 (Gibco, Cat #22400-105), the supplementary was 10% FBS (Gibco, Cat #10091148); 1% PenStrep (Gibco, Cat #15140); 0.05 mM 2-mercaptoethanol (Sigma, Cat #M6250). TNF-α content in the culture supernatant was measured by a TNF-α Elisa kit. TNF-α was produced by stimulation of THP-1 cells with 150 ng/mL LPS (Sigma, Cat #L6529). Normal THP-1 cells in logarithmic phase were inoculated in 96-well plates (Corning #3599) at a certain concentration (1×10^5/100 μL) and then incubated in an incubator. After two hours, 16.7 μL of test compound of different concentrations (8×final concentration) was added and the mixture was incubated. After one hour, 16.7 μL of 1200 ng/mL LPS was added and the mixture was incubated. After 18 hours, the culture was centrifuged and the supernatant was collected. The TNF-α content was measured by a TNF-α Elisa kit. Finally, the OD signals (OD450-OD570) were read on an envision plate reader. The OD450-OD570 signals were converted to percent inhibition. Inhibition %=(ZPE−sample)/(ZPE−HPE)×100. “HPE” represents the OD450-OD570 signal value of the control without LPS-stimulated cells, and “ZPE” represents the OD450-OD570 signal value of the control with LPS-stimulated cells. IC50 values for compounds were calculated by XLFit in the Excel. Y=Bottom+(Top−Bottom)/(1+(IC50/X)^HillSlope). Equation: […]

Chain of human IRAK4 (Q9NWZ3 whole entry): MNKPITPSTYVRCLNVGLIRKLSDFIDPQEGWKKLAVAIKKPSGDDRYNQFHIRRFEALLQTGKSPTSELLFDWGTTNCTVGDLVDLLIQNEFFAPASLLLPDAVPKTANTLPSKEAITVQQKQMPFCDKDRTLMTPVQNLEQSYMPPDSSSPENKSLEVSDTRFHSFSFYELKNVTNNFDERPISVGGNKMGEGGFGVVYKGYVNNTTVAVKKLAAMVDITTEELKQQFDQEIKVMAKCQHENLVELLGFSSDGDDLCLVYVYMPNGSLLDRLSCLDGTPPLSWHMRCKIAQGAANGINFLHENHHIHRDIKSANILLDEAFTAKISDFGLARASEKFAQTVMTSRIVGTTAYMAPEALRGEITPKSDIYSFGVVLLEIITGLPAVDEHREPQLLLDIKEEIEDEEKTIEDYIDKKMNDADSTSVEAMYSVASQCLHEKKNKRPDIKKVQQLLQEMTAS

Row | Structure (SMILES) | IC50 (human IRAK4) [nM] | IC50 (THP-1 cells; Homo sapiens, THP-1, 18 h) [nM] | also measured
1 | NC(=O)C[C@H]1CCc2sc3ncnc(O[C@H]4CC[C@H](N5CCOCC5)CC4)c3c21 [WXR2, ND-2110, reference compound] | – | – | Vd ([1]; Intravenous, 3 mg/kg, read-out: Apparent volume of distribution Vdss): 1.6 L/kg; AUC(0-t) ([1]; Intravenous, 3 mg/kg): 3.68 µM·h; clearance ([1]; Intravenous, 3 mg/kg, read-out: Clearance CL): 33.2 mL/min/kg; half-life ([1]; Intravenous, 3 mg/kg, read-out: Half life T1/2 (converted)): 78 min; AUC(0-t) ([1]; Oral, 10 mg/kg): 2.13 µM·h; bioavailability ([1]; Oral, 10 mg/kg, read-out: Bioavailability F): 18%; Cmax ([1]; Oral, 10 mg/kg, read-out: Peak concentration Cmax): 893 nM; Tmax ([1]; Oral, 10 mg/kg, read-out: Time to peak Tmax): 36 min
2 | Cc1nsc2nc(Nc3cnn(C4CCOCC4)c3)nc(N[C@H]3CC[C@H](N4CCNCC4)CC3)c12 [WX025] | 23.6 | – | –
3 | Cc1nsc2nc(Nc3cnn(C4CCOCC4)c3)nc(N[C@H]3CC[C@H](N4CC5CC(C4)N5C)CC3)c12 [WX041] | 21.4 | – | –
4 | Cc1nsc2nc(Nc3cnn(C4CCOC4)c3)nc(N[C@H]3CC[C@H](N4CCOCC4)CC3)c12 (stereo partly shown) [WX008] | 27.2 | – | IC50 (THP-1 cells; 18 hours): 279 nM
5 | Cc1nsc2nc(Nc3cnn(C4CCOCC4)c3)nc(N[C@H]3CC[C@H](N4CC(O)C4)CC3)c12 [WX060] | 7.3 | – | –
6 | Cc1nsc2nc(Nc3cnn(C4CCOCC4)c3)nc(N[C@H]3CC[C@H](N4CCN(C(C)C)CC4)CC3)c12 [WX029] | 3.8 | – | –
7 | Cc1nsc2nc(Nc3cnn(C4CCOCC4)c3)nc(N[C@H]3CC[C@H](N4CCNCC4C)CC3)c12 (stereo partly shown) [WX051] | 13.7 | – | –
8 | Cc1nsc2nc(Nc3cnn(CC(=O)O)c3)nc(N[C@H]3CC[C@H](N4CCOCC4)CC3)c12 [WX011] | 357 | – | –
9 | Cc1nsc2nc(Nc3cnn(C4CCOCC4)c3)nc(N[C@H]3CC[C@H](N4CC5CC(C4)N5)CC3)c12 [WX040] | 30 | – | –
10 | CC(=O)N1CCCN(C2CCC(Nc3nc(Nc4cnn(C5CCOCC5)c4)nc4snc(C)c34)CC2)CC1 (stereo not shown) [WX038] | 1.3 | 216 | –
11 | COC(=O)N1CCN([C@H]2CC[C@H](Nc3nc(Nc4cnn(C5CCOC5)c4)nc4snc(C)c34)CC2)CC1 (stereo partly shown) [WX032] | 15.2 | – | –
12 | Cc1nsc2nc(Nc3cnn(C4CCOCC4)c3)nc(N[C@H]3CC[C@H](N4CCNC5(CC5)C4)CC3)c12 [WX050] | 13.4 | 689 | –
13 | Cc1nsc2nc(Nc3cnn([C@H]4CCOC4)c3)nc(N[C@H]3CC[C@H](N4CCOCC4)CC3)c12 [WX006] | 9.9 | 486 | –
14 | Cc1nsc2nc(Nc3cnn(C4CCOCC4)c3)nc(N[C@H]3CC[C@H](N4CCNC(=O)C4)CC3)c12 [WX048] | 460 | – | –
15 | COC(=O)N1C[C@H]2C[C@@H]1CN2[C@H]1CC[C@H](Nc2nc(Nc3cnn(C4CCOCC4)c3)nc3snc(C)c23)CC1 [WX047] | 29.6 | 889 | –
16 | CC(=O)N1C2CC1CN([C@H]1CC[C@H](Nc3nc(Nc4cnn(C5CCOCC5)c4)nc4snc(C)c34)CC1)C2 [WX043] | 12.2 | – | –
17 | Cc1nsc2nc(Nc3cnn(C4CCOCC4)c3)nc(N[C@H]3CC[C@H](N4CCN(C5CC5)CC4)CC3)c12 [WX031] | 2.4 | 317 | –
18 | Cc1nsc2nc(Nc3cnn(CCO)c3)nc(N[C@H]3CC[C@H](N4CCOCC4)CC3)c12 [WX010] | 45.9 | – | –
19 | Cc1nsc2nc(Nc3cnn(C4CCOCC4)c3)nc(N(C)[C@H]3CC[C@H](N4CCOCC4)CC3)c12 [WX013] | 60.1 | – | –

Row | Structure (SMILES) | IC50 (human IRAK4) [nM] | IC50 (THP-1 cells; Homo sapiens, THP-1, 18 h) [nM] | also measured
20 | Cc1nsc2nc(Nc3cnn(C4CCOCC4)c3)nc(N[C@H]3CC[C@H](N4CCC(C(=O)O)CC4)CC3)c12 [WX057] | 5 | – | –
21 | CCOC(=O)N1CCN([C@H]2CC[C@H](Nc3nc(Nc4cnn(C5CCOCC5)c4)nc4snc(C)c34)CC2)CC1 [WX028] | 1.6 | 234 | –
22 | O=C(O)Cc1nsc2nc(Nc3cnn(C4CCOCC4)c3)nc(N[C@H]3CC[C@H](N4CCOCC4)CC3)c12 [WX056] | 17 | – | –
23 | COC(=O)N1CCN([C@H]2CC[C@H](Nc3nc(Nc4cnn([C@H]5CCOC5)c4)nc4snc(C)c34)CC2)CC1 [WX034] | 12.8 | – | –
24 | COC(=O)N1CCN([C@H]2CC[C@H](Nc3nc(Nc4cnn([C@@H]5CCOC5)c4)nc4snc(C)c34)CC2)CC1 [WX033] | 12.8 | – | –
25 | Cc1nsc2nc(Nc3cnn(C4CCOCC4)c3)nc(NC3CCC(N4CCCN(C)CC4)CC3)c12 (stereo not shown) [WX037] | 9.2 | 296 | –
26 | Cc1nsc2nc(Nc3cnn(C4CCOCC4)c3)nc(N[C@H]3CC[C@H](N4CCN(C)CC4)CC3)c12 [WX030] | 7.5 | 308 | –
27 | Cc1nsc2nc(Nc3cnn(C4CCOCC4)c3)nc(NC3CCC(N4CCCNCC4)CC3)c12 (stereo not shown) [WX036] | 5.5 | 4160 | –
28 | COC(=O)N1CCN([C@H]2CC[C@H](Nc3nc(Nc4cnn(C)c4)nc4snc(C)c34)CC2)CC1 [WX035] | 10.7 | – | –
29 | Cc1nsc2nc(Nc3cnn(C4CCOCC4)c3)nc(N[C@H]3CC[C@H](N4C[C@H]5C[C@@H]4CN5C)CC3)c12 [WX045] | 278 | – | –
30 | Cc1nsc2nc(Nc3cnn(C[C@@H]4COCCO4)c3)nc(N[C@H]3CC[C@H](N4CCOCC4)CC3)c12 [WX015] | 20.5 | 952 | –
31 | COC(=O)N1CCCN(C2CCC(Nc3nc(Nc4cnn(C5CCOCC5)c4)nc4snc(C)c34)CC2)CC1 (stereo not shown) [WX039] | 7.9 | 139 | –
32 | COC(=O)N1CCN([C@H]2CC[C@H](Nc3nc(Nc4cnn(C5CCC(F)(F)CC5)c4)nc4snc(C)c34)CC2)CC1 [WX059] | 1.1 | – | –
33 | Cc1nsc2nc(Nc3cnn(C4CCOCC4)c3)nc(N[C@H]3CC[C@H](N4CCNC(C)C4)CC3)c12 (stereo partly shown) [WX049] | 11.2 | 516 | –
34 | Cc1nsc2nc(Nc3cnn(C4CCOCC4)c3)nc(O[C@H]3CC[C@H](N4CCOCC4)CC3)c12 [WX002] | 89.5 | – | –
35 | Cc1nsc2nc(Nc3cnn(C4CCOCC4)c3)nc(N[C@H]3CC[C@H](N4CCOCC4=O)CC3)c12 [WX054] | 363 | – | –
36 | Cn1cc(Nc2nc(N[C@H]3CC[C@H](N4CCOCC4)CC3)c3c(C4CCOCC4)nsc3n2)cn1 [WX005] | 8.7 | – | –
37 | Cc1nsc2nc(Nc3cnn(C4CCOCC4)c3)nc(N[C@H]3CC[C@H](N4CCC(N(C)C)CC4)CC3)c12 [WX058] | 2.1 | – | –
38 | Cc1nsc2nc(Nc3cnn(C4CCOCC4)c3)nc(N[C@H]3CC[C@H](N4CCC(O)CC4)CC3)c12 [WX052] | 1.8 | – | –
